# Experimental data as given in PubChem BioAssay (NCI).
# Where “and” joins values, the source holds several entries; their conditions need not be identical. Identical values can stand only once.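 Five compound concentrations were applied to cells in 96-well plates for 48 hours; endpoints were derived by simple linear interpolation of the resulting dose-response curve. Here, GI50 denotes the concentration required for 50% inhibition of growth. TGI: concentration producing complete growth inhibition.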
# Tests used:
# Test in all cases: inhibition of tumour cell growth, NCI panel, 48 h
# UACC-62 melanoma = test system: UACC-62 melanoma
# COLO 205 colon = test system: COLO 205 colon
# CCRF-CEM leukemia = test system: CCRF-CEM leukemia
# SF-539 CNS = test system: SF-539 CNS
# SK-MEL-5 melanoma = test system: SK-MEL-5 melanoma
# IGROV1 ovarian = test system: IGROV1 ovarian
# HOP-92 NSCLC = test system: HOP-92 NSCLC
# EKVX NSCLC = test system: EKVX NSCLC
# KM12 colon = test system: KM12 colon
# MCF7 breast = test system: MCF7 breast
# UO-31 renal = test system: UO-31 renal
# SN12C renal = test system: SN12C renal
# HS 578T breast = test system: HS 578T breast
# K-562 leukemia = test system: K-562 leukemia
# RPMI-8226 leukemia = test system: RPMI-8226 leukemia
# MDA-N = test system: MDA-N
# UACC-257 melanoma = test system: UACC-257 melanoma
# TK-10 renal = test system: TK-10 renal
# CAKI-1 renal = test system: CAKI-1 renal
# NCI-H23 lung = test system: NCI-H23 lung
# MALME-3M melanoma = test system: MALME-3M melanoma
# SK-MEL-28 melanoma = test system: SK-MEL-28 melanoma
# OVCAR-4 ovarian = test system: OVCAR-4 ovarian
# MOLT-4 leukemia = test system: MOLT-4 leukemia
# HCT-116 colon = test system: HCT-116 colon
# MDA-MB-231 breast = test system: MDA-MB-231 breast
# SR leukemia = test system: SR leukemia
# SNB-75 CNS = test system: SNB-75 CNS
# SW-620 colon = test system: SW-620 colon
# U251 CNS = test system: U251 CNS
# BT-549 breast = test system: BT-549 breast
# NCI/ADR-RES ovarian = test system: NCI/ADR-RES ovarian
# SF-268 CNS = test system: SF-268 CNS
# A498 renal = test system: A498 renal
# T-47D breast = test system: T-47D breast
# HL-60(TB) leukemia = test system: HL-60(TB) leukemia
# NCI-H226 lung = test system: NCI-H226 lung
# DU-145 prostate = test system: DU-145 prostate
# OVCAR-3 ovarian = test system: OVCAR-3 ovarian
# SK-OV-3 ovarian = test system: SK-OV-3 ovarian
# 786-0 renal = test system: 786-0 renal
# SK-MEL-2 melanoma = test system: SK-MEL-2 melanoma
# M14 melanoma = test system: M14 melanoma
# RXF 393 renal = test system: RXF 393 renal
# HCT-15 colon = test system: HCT-15 colon
# SF-295 CNS = test system: SF-295 CNS
# HCC-2998 colon = test system: HCC-2998 colon
# NCI-H522 lung = test system: NCI-H522 lung
# SNB-19 CNS = test system: SNB-19 CNS
# HOP-62 NSCLC = test system: HOP-62 NSCLC
# A549 NSCLC = test system: A549 NSCLC
# OVCAR-5 ovarian = test system: OVCAR-5 ovarian
# ACHN renal = test system: ACHN renal
# MDA-MB-435 = test system: MDA-MB-435
# PC-3 prostate = test system: PC-3 prostate
# NCI-H460 lung = test system: NCI-H460 lung
# LOX IMVI melanoma = test system: LOX IMVI melanoma
# HT29 colon = test system: HT29 colon
# OVCAR-8 ovarian = test system: OVCAR-8 ovarian
smiles,measurement,setting,value
O=C(O)c1ccccc1C1CCCc2c1[nH]c1ccccc21 (stereo not given),TGI,UACC-62 melanoma,> 100 µM
same,TGI,COLO 205 colon,> 100 µM
same,TGI,CCRF-CEM leukemia,76.2 µM
same,TGI,SF-539 CNS,> 100 µM
same,TGI,SK-MEL-5 melanoma,> 100 µM
same,TGI,IGROV1 ovarian,> 100 µM
same,TGI,HOP-92 NSCLC,> 100 µM
same,TGI,EKVX NSCLC,> 100 µM
same,TGI,KM12 colon,> 100 µM
same,TGI,MCF7 breast,> 100 µM
same,TGI,UO-31 renal,> 100 µM
same,TGI,SN12C renal,> 100 µM
same,TGI,HS 578T breast,> 100 µM
same,TGI,K-562 leukemia,> 100 µM
same,TGI,RPMI-8226 leukemia,> 100 µM
same,TGI,MDA-N,> 100 µM
same,TGI,UACC-257 melanoma,> 100 µM
same,TGI,TK-10 renal,> 100 µM
same,TGI,CAKI-1 renal,> 100 µM
same,TGI,NCI-H23 lung,> 100 µM
same,TGI,MALME-3M melanoma,> 100 µM
same,TGI,SK-MEL-28 melanoma,> 100 µM
same,TGI,OVCAR-4 ovarian,> 100 µM
same,TGI,MOLT-4 leukemia,> 100 µM
same,TGI,HCT-116 colon,> 100 µM
same,TGI,MDA-MB-231 breast,> 100 µM
same,TGI,SR leukemia,> 100 µM
same,TGI,SNB-75 CNS,59.3 µM
same,TGI,SW-620 colon,> 100 µM
same,TGI,U251 CNS,> 100 µM
same,TGI,BT-549 breast,> 100 µM
same,TGI,NCI/ADR-RES ovarian,> 100 µM
same,TGI,SF-268 CNS,> 100 µM
same,TGI,A498 renal,85.9 µM
same,TGI,T-47D breast,71 µM
same,TGI,HL-60(TB) leukemia,> 100 µM
same,TGI,NCI-H226 lung,> 100 µM
same,TGI,DU-145 prostate,> 100 µM
same,TGI,OVCAR-3 ovarian,> 100 µM
same,TGI,SK-OV-3 ovarian,> 100 µM
same,TGI,786-0 renal,> 100 µM
same,TGI,SK-MEL-2 melanoma,> 100 µM
same,TGI,M14 melanoma,> 100 µM
same,TGI,RXF 393 renal,> 100 µM
same,TGI,HCT-15 colon,> 100 µM
same,TGI,SF-295 CNS,> 100 µM
same,TGI,HCC-2998 colon,> 100 µM
same,TGI,NCI-H522 lung,> 100 µM
same,TGI,SNB-19 CNS,> 100 µM
same,TGI,HOP-62 NSCLC,> 100 µM
same,TGI,A549 NSCLC,> 100 µM
same,TGI,OVCAR-5 ovarian,> 100 µM
same,TGI,ACHN renal,> 100 µM
same,TGI,MDA-MB-435,> 100 µM
same,TGI,PC-3 prostate,> 100 µM
same,TGI,NCI-H460 lung,> 100 µM
same,TGI,LOX IMVI melanoma,> 100 µM
same,TGI,HT29 colon,> 100 µM
same,TGI,OVCAR-8 ovarian,> 100 µM
COc1cc(CC(C)C(C)Cc2ccc(O)c(OC)c2)ccc1O (stereo not given),GI50,UACC-62 melanoma,14.4 µM
same,TGI,UACC-62 melanoma,50 µM and 27.6 µM
same,GI50,COLO 205 colon,18.1 µM
same,TGI,COLO 205 colon,> 50 µM and 32.9 µM
same,GI50,CCRF-CEM leukemia,0.0496 µM
same,TGI,CCRF-CEM leukemia,40.2 µM and 20.8 µM
same,GI50,SF-539 CNS,17 µM
same,TGI,SF-539 CNS,50 µM and 31.6 µM
same,GI50,SK-MEL-5 melanoma,14.9 µM
same,TGI,SK-MEL-5 melanoma,16.5 µM and 28.1 µM
same,GI50,IGROV1 ovarian,16.4 µM
same,TGI,IGROV1 ovarian,43.1 µM and 33.7 µM
same,GI50,HOP-92 NSCLC,14.5 µM
same,TGI,HOP-92 NSCLC,27.6 µM and 30.2 µM
same,TGI,EKVX NSCLC,41.5 µM and 30.3 µM
same,GI50,KM12 colon,17.6 µM
same,TGI,KM12 colon,50 µM and 33.8 µM
same,TGI,MCF7 breast,38 µM
same,TGI,UO-31 renal,25.3 µM
same,GI50,SN12C renal,13.1 µM
same,TGI,SN12C renal,50 µM and 26 µM
same,GI50,HS 578T breast,20 µM
same,TGI,HS 578T breast,22.7 µM and 49.8 µM
same,GI50,K-562 leukemia,12.7 µM
same,TGI,K-562 leukemia,50 µM and 39 µM
same,GI50,RPMI-8226 leukemia,19.4 µM
same,TGI,RPMI-8226 leukemia,17.4 µM and 45.8 µM
same,GI50,MDA-N,13.7 µM
same,TGI,MDA-N,50 µM and 26.6 µM
same,GI50,UACC-257 melanoma,19.2 µM
same,TGI,UACC-257 melanoma,50 µM and 37.3 µM
same,GI50,TK-10 renal,18.2 µM
same,TGI,TK-10 renal,50 µM and 32.7 µM
same,TGI,CAKI-1 renal,50 µM and 31.9 µM
same,GI50,NCI-H23 lung,21.2 µM
same,TGI,NCI-H23 lung,50 µM and 44.4 µM
same,GI50,MALME-3M melanoma,16.2 µM
same,TGI,MALME-3M melanoma,32.7 µM and 34 µM
same,TGI,SK-MEL-28 melanoma,50 µM and 35.5 µM
same,GI50,OVCAR-4 ovarian,17.3 µM
same,TGI,OVCAR-4 ovarian,50 µM and 41.2 µM
same,GI50,MOLT-4 leukemia,1.39 µM
same,TGI,MOLT-4 leukemia,22 µM and 13 µM
same,GI50,HCT-116 colon,14.6 µM
same,TGI,HCT-116 colon,50 µM and 27.7 µM
same,TGI,MDA-MB-231 breast,50 µM
same,GI50,SR leukemia,6.41 µM
same,TGI,SR leukemia,18.8 µM and 24.9 µM
same,GI50,SNB-75 CNS,18.4 µM
same,TGI,SNB-75 CNS,50 µM and 34.5 µM
same,TGI,SW-620 colon,50 µM and 35 µM
same,TGI,U251 CNS,50 µM
same,TGI,BT-549 breast,50 µM and 31.4 µM
same,TGI,NCI/ADR-RES ovarian,50 µM and 41.6 µM
same,TGI,SF-268 CNS,50 µM and 34.7 µM
same,TGI,A498 renal,32.8 µM
same,GI50,T-47D breast,21.9 µM
same,TGI,T-47D breast,50 µM and 50.6 µM
same,GI50,HL-60(TB) leukemia,0.0179 µM
same,GI50,NCI-H226 lung,16.8 µM
same,TGI,NCI-H226 lung,40.7 µM and 33.2 µM
same,GI50,DU-145 prostate,17 µM
same,TGI,DU-145 prostate,50 µM and 30.6 µM
same,TGI,OVCAR-3 ovarian,50 µM and 32.5 µM
same,GI50,SK-OV-3 ovarian,16.9 µM
same,TGI,SK-OV-3 ovarian,50 µM and 33.4 µM
same,GI50,786-0 renal,13.6 µM
same,TGI,786-0 renal,50 µM and 26.5 µM
same,TGI,SK-MEL-2 melanoma,25 µM
same,TGI,M14 melanoma,47.5 µM and 30.2 µM
same,GI50,RXF 393 renal,17.7 µM
same,TGI,RXF 393 renal,42.7 µM and 35.4 µM
same,GI50,HCT-15 colon,18 µM
same,TGI,HCT-15 colon,50 µM and 39.9 µM
same,TGI,SF-295 CNS,50 µM and 35.1 µM
same,TGI,HCC-2998 colon,32.7 µM
same,GI50,NCI-H522 lung,16.2 µM
same,TGI,NCI-H522 lung,21.4 µM and 33.5 µM
same,GI50,SNB-19 CNS,15.8 µM
same,TGI,SNB-19 CNS,50 µM and 29.6 µM
same,GI50,HOP-62 NSCLC,17.6 µM
same,TGI,HOP-62 NSCLC,50 µM and 33.6 µM
same,TGI,A549 NSCLC,50 µM and 27.1 µM
same,GI50,OVCAR-5 ovarian,14.4 µM
same,TGI,OVCAR-5 ovarian,> 50 µM and 27.7 µM
same,TGI,ACHN renal,37.9 µM and 28.2 µM
same,GI50,MDA-MB-435,15.1 µM
same,TGI,MDA-MB-435,38.4 µM and 29.6 µM
same,TGI,PC-3 prostate,27.7 µM
same,GI50,NCI-H460 lung,18.3 µM
same,TGI,NCI-H460 lung,39.9 µM and 32.3 µM
same,GI50,LOX IMVI melanoma,17.9 µM
same,TGI,LOX IMVI melanoma,30.7 µM and 40.9 µM
same,GI50,HT29 colon,16.2 µM
same,TGI,HT29 colon,50 µM and 31.1 µM
same,TGI,OVCAR-8 ovarian,50 µM and 41 µM
